# Source: patent US8048901B2, “1,3-substituted cycloalkyl derivatives having acidic, mostly heterocyclic groups, processes for their preparation and their use as pharmaceuticals” (Aventis Pharma Deutschland GmbH, priority 2003, dated 2011)
# Molecular target: T1, human PPARalpha (Homo sapiens, UniProt Q07869)
# T1 construct: human PPARalpha receptor (amino acids S167-Y468); expressed in transfected cells; host or cells: HEK cells (human embryo kidney), stably transfected with a pcDNA3-based plasmid
# T1 sequence (Q07869 167-468): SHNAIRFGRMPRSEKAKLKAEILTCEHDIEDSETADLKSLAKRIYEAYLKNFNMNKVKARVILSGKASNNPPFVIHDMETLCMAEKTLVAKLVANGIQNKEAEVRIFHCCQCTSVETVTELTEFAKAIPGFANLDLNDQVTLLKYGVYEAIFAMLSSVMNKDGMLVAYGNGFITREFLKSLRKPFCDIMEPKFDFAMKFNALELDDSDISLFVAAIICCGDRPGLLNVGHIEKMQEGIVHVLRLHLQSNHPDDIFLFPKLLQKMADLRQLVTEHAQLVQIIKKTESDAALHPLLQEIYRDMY
# Experiment: Cellular PPARalpha assay (stably transfected HEK PPARalpha reporter cell line, luciferase)
# Assay type: cell-based
# Conditions: GR-GAL4-humanPPARalpha-LBD, luciferase readout
# Description: Determination of EC50 Values of PPAR Agonists in the Cellular PPARalpha Assay
# The potency of substances which bind to human PPARalpha and activate in an agonistic manner is analyzed using a stably transfected HEK cell line (HEK=human embryo kidney) which is referred to here as PPARalpha reporter cell line. It contains two genetic elements, a luciferase reporter element (pdeltaM-GAL4-Luc-Zeo) and a PPARalpha fusion protein (GR-GAL4-humanPPARalpha-LBD) which mediates expression of the luciferase reporter element depending on a PPARalpha ligand. The stably and constitutively expressed fusion protein GR-GAL4-humanPPARalpha-LBD binds in the cell nucleus of the PPARalpha reporter cell line via the GAL4 protein portion to the GAL4 DNA binding motifs 5′-upstream of the luciferase reporter element which is integrated in the genome of the cell line. There is only little expression of the luciferase reporter gene without addition of a PPARalpha ligand if fatty acid-depleted fetal calf serum (cs-FCS) is used in the assay. PPARalpha ligands bind and activate the PPARalpha fusion protein and thereby bring about expression of the luciferase reporter gene. The luciferase which is formed can be detected by means of chemiluminescence via an appropriate substrate.
# The PPARalpha reporter cell line was prepared in 2 stages. Firstly, the luciferase reporter element was constructed and stably transfected into HEK cells. For this purpose, five binding sites of the yeast transcription factor GAL4 (each 5′-CGGAGTACTGTCCTCCGAG-3′) (SEQ ID No. 1) were cloned in 5′-upstream of a 68 bp-long minimal MMTV promoter (Genbank Accession # V01175). The minimal MMTV promoter section contains a CCAAT box and a TATA element in order to enable efficient transcription by RNA polymerase II. The cloning and sequencing of the GAL4-MMTV construct took place in analogy to the description of Sambrook J. et. al. (Molecular cloning, Cold Spring Harbor Laboratory Press, 1989). Then the complete Photinus pyralis gene (Genbank Accession # M15077) was cloned in 3′-downstream of the GAL4-MMTV element. After sequencing, the luceriferase reporter element consisting of five GAL4 binding sites, MMTV promoter and luciferase gene was recloned into a plasmid which confers zeocin resistance in order to obtain the plasmid pdeltaM-GAL4-Luc-Zeo. This vector was transfected into HEK cells in accordance with the statements in Ausubel, F. M. et al. (Current protocols in molecular biology, Vol. 1-3, John Wiley & Sons, Inc., 1995).
# In a second step, the PPARalpha fusion protein (GR-GAL4-humanPPARalpha-LBD) was introduced into the stable cell clone described. For this purpose, initially the cDNA coding for the N-terminal 76 amino acids of the glucocorticoid receptor (Genbank Accession # P04150) was linked to the cDNA section coding for amino acids 1-147 of the yeast transcription factor GAL4 (Genbank Accession # P04386). The cDNA of the ligand-binding domain of the human PPARalpha receptor (amino acids S167-Y468; Genbank Accession # S74349) was cloned in at the 3′-end of this GR-GAL4 construct. The fusion construct prepared in this way (GR-GAL4-humanPPARalpha-LBD) was recloned into the plasmid pcDNA3 (from Invitrogen) in order to enable constitutive expression therein by the cytomegalovirus promoter. This plasmid was linearized with a restriction endonuclease and stably transfected into the previously described cell clone containing the luciferase reporter element. The finished PPARalpha reporter cell line which contains a luciferase reporter element and constitutively expresses the PPARalpha fusion protein (GR-GAL4-human PPARalpha-LBD) was isolated by selection with zeocin (0.5 mg/ml) and G418 (0.5 mg/ml).
# The activity of PPARalpha agonists is determined in a 3-day assay which is described below: […]
row,SMILES,EC50 [nM]
1,"Cc1ccc(-c2nc(CO[C@@H]3CCC[C@H](Cn4c(C(=O)O)cc5ccccc54)C3)c(C)o2)cc1 (racemic) [Example XXVI, 1-[(1S,3R)/(1R,3S)-3-(5-Methyl-2-p-tolyloxazol-4-ylmethoxy)cyclohexylmethyl]-1H-indole-2-carboxylic acid]",24
2,"Cc1cccc(-c2nc(CO[C@H]3CCC[C@@H](OCCCNS(=O)(=O)C(F)(F)F)C3)c(C)o2)c1 [Example II, (1R,3S)—C,C,C-Trifluoro-N-{3-[3-(5-methyl-2-m-tolyloxazol-4-ylmethoxy)cyclohexyloxy]propyl}methanesulfonamide]",331
3,"CCc1ccc2c(c1)cc(C(=O)O)n2CCO[C@@H]1CCC[C@H](OCc2nc(-c3cccc(C)c3)oc2C)C1 [Example VII, (1R,3S)-5-Ethyl-1-{2-[3-(5-methyl-2-m-tolyloxazol-4-ylmethoxy)cyclohexyloxy]ethyl}-1H-indole-2-carboxylic acid]",469
4,"COc1ccc2cc(C(=O)O)n(CCO[C@@H]3CCC[C@H](OCc4nc(-c5cccc(C)c5)oc4C)C3)c2c1 [Example XI, (1R,3S)-6-Methoxy-1-{2-[3-(5-methyl-2-m-tolyloxazol-4-ylmethoxy)cyclohexyloxy]ethyl}-1H-indole-2-carboxylic acid]",361
5,"Cc1cccc(-c2nc(CO[C@H]3CCC[C@@H](OCCOc4cccc(C)c4[N+](=O)[O-])C3)c(C)o2)c1 [Example XXI, (1S,3R)-5-Methyl-4-{3-[2-(3-methyl-2-nitrophenoxy)ethoxy]cyclohexyloxymethyl}-2-m-tolyloxazole]",530

# The next lines start with the values.
row,EC50 [nM],SMILES
1,106,"Cc1cccc(-c2nc(CO[C@H]3CCC[C@@H](OCCOc4cccc(C)c4C(=O)O)C3)c(C)o2)c1 [Example XIV, (1R,3S)-2-Methyl-6-{2-[3-(5-methyl-2-m-tolyloxazol-4-ylmethoxy)cyclohexyloxy]ethoxy}benzoic acid]"
2,519,"Cc1cccc(-c2nc(CO[C@H]3CCC[C@@H](OCCOc4ccccc4C(=O)O)C3)c(C)o2)c1 [Example XV, (1R,3S)-2-{2-[3-(5-Methyl-2-m-tolyloxazol-4-ylmethoxy)cyclohexyloxy]-ethoxy}benzoic acid]"
3,222,"Cc1cccc(-c2nc(CO[C@H]3CCC[C@@H](OCCOc4cc(C(F)(F)F)sc4C(=O)O)C3)c(C)o2)c1 [Example XXIII, (1R,3S)-3-{2-[3-(5-Methyl-2-m-tolyloxazol-4-ylmethoxy)cyclohexyloxy]ethoxy}-5-trifluoromethylthiophene-2-carboxylic acid]"
